Assay results: publication PMC2994877, “A Full Pharmacological Analysis of the Three Turkey β-Adrenoceptors and Comparison with the Human β-Adrenoceptors” (PLoS ONE, 2010)
Read-outs that look alike come from different tables or passages of the source. Marks after values point to notes of the source that are not given here. Values belong to the compound of their own block, whether it stands above or below them.

Key:
Human β3-adrenoceptor = settings: cited from earlier work
[1] = target: T1, turkey β3C-adrenoceptor (tβ3C) (Meleagris gallopavo, UniProt A0A803YLI8); assay: 3H-CGP12177 whole cell binding, CHO tβ3C cells
[2] = target: T2, turkey β4C-adrenoceptor (tβ4C) (Meleagris gallopavo, UniProt P43141); assay: cell-based; format: cell-based; settings: for % isop max: CRE-SPAP, % of 10 µM isoprenaline maximum
T2 construct: expressed in transfected cells

[3] = target: T1, turkey β3C-adrenoceptor (tβ3C); assay: CRE-SPAP production, CHO tβ3C cells; format: cell-based; settings: for Emax: read-out: % isop max
[4] = target: T2, turkey β4C-adrenoceptor (tβ4C); assay: cell-based; format: binding
Human β2-adrenoceptor = target: Human β2-adrenoceptor; set-up: method as in PMID 15655528, PMID 20590599; settings: Human β2, given for comparison; ref 25 and 30; cited from earlier work
Human β1-adrenoceptor = target: Human β1-adrenoceptor; set-up: method as in PMID 15655528, PMID 20590599; settings: Human β1, given for comparison; ref 25 and 30; cited from earlier work
[5] = Human β3, given for comparison, ref 25 and 30
[6] = competition with 3H-CGP12177, whole cells, CHO tβ3C, given as log KD, mean ± s.e.m.
[7] = competition with 3H-CGP12177, whole cells, CHO tβ4C, given as log KD, mean ± s.e.m.
[8] = competition with 3H-CGP12177, whole cells, CHO tβ3C, given as log KD, mean ± s.e.m., read-out: Log KD (converted)
[9] = competition with 3H-CGP12177, whole cells, CHO tβ4C, given as log KD, mean ± s.e.m., read-out: Log KD (converted)

T1 sequence (A0A803YLI8 entry or part of it): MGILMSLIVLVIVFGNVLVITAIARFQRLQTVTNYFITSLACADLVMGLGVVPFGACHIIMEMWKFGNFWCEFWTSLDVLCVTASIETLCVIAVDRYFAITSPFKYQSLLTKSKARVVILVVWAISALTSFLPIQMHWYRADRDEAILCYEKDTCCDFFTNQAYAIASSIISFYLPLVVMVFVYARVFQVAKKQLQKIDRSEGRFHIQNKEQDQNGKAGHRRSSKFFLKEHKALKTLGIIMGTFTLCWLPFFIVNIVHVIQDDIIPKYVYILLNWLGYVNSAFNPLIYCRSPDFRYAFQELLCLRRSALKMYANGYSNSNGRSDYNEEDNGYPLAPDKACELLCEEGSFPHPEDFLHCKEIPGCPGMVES
T2 sequence (P43141 whole entry): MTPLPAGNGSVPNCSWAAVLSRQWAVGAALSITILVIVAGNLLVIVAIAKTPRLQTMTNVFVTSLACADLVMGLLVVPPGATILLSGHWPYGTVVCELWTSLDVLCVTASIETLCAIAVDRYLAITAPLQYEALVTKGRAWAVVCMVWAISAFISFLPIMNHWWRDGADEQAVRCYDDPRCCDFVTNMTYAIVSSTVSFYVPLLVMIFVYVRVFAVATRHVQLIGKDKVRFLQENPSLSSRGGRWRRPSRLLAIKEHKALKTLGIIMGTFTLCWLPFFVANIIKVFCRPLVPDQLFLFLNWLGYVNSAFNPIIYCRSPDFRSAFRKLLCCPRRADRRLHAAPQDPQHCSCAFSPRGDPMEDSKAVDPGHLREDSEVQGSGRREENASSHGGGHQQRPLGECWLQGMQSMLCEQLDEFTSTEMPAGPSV

SMILES: CC(C)NCC(O)c1ccc(O)c(O)c1 (stereo not shown) [Isoprenaline]
Log KD (Human β3-adrenoceptor; [5]): −5.52 | Kd [1]: 316 nM | % isop max ([2]; CHO tβ4C cells): 100% | CRE-SPAP gene transcription response ([2]; tβ4C): 2.47±0.10 fold over basal | EC50 [3]: 26.9 nM | % isop max ([3]; CRE-SPAP, % of 10 µM isoprenaline maximum, CHO tβ3C cells): 100%

SMILES: CCCCCCNC(=O)Nc1ccc(S(=O)(=O)Nc2ccc(CCNC[C@H](O)COc3ccc(O)cc3)cc2)cc1 [L755507]
Log KD (Human β3-adrenoceptor; Human β3, binding to site 1): −8.60 ^* | Log KD [1, 6]: −6.56±0.06 | Log KD [4, 7]: −7.63±0.11 | Log KD (Human β2-adrenoceptor): −6.83 | Log KD (Human β1-adrenoceptor): −6.23

SMILES: CC(CCc1ccccc1)NCC(O)c1ccc(O)c(C(N)=O)c1 (stereo not shown) [Labetolol]
Log KD (Human β3-adrenoceptor; [5]): −6.18 | Log KD [1, 6]: −7.42±0.04 | Log KD [4, 7]: −7.70±0.04

Kd [1, 8]: 4170 nM | Kd [4, 9]: 7410 nM
SMILES: CC(C)NCC(O)c1cc(O)cc(O)c1 (stereo not shown) [Metaproterenol]
Log KD (Human β3-adrenoceptor; [5]): −4.06 | Log KD (Human β2-adrenoceptor): −5.30 | Log KD (Human β1-adrenoceptor): −4.71

SMILES: COCCc1ccc(OCC(O)CNC(C)C)cc1 (stereo not shown) [Metoprolol]
Kd [1]: 1100 nM | Kd [4]: 1660 nM

SMILES: OC(CNCC(O)C1CCc2cc(F)ccc2O1)C1CCc2cc(F)ccc2O1 (stereo not shown) [Nebivolol]
Log KD (Human β3-adrenoceptor; [5]): −7.04 | Kd [1, 8]: 16.6 nM | Kd [4, 9]: 1.48 nM | Log KD (Human β2-adrenoceptor): −7.92

SMILES: CC(C)NCC(O)COc1cccc2[nH]ccc12 (stereo not shown) [Pindolol]
Kd [1]: 1.95 nM | Kd [4, 9]: 5.25 nM

SMILES: CC(C)NCC(O)c1ccc2ccccc2c1 (stereo not shown) [Pronethalol]
Log KD (Human β3-adrenoceptor; [5]): −5.89 | Kd [1, 8]: 102 nM | Kd [4]: 87.1 nM | Log KD (Human β1-adrenoceptor): −6.44

SMILES: CC(CCc1ccc(O)cc1)NCC(O)c1ccc(O)cc1 (stereo not shown) [Ractopamine]
Log KD (Human β3-adrenoceptor; [5]): −5.82 | Kd [1]: 224 nM | Kd [4, 9]: 269 nM | Log KD (Human β1-adrenoceptor): −6.97

SMILES: CC(C)OC(=O)c1cc2c(OCC(O)CNC(C)(C)C)cccc2[nH]1 (stereo not shown) [SDZ21009]
Log KD (Human β3-adrenoceptor; [5]): −7.10 | Log KD [1, 6]: −10.17±0.08 | Log KD [4, 7]: −9.06±0.07 | Log KD (Human β2-adrenoceptor): −10.28

SMILES: CCc1ccccc1OC[C@@H](O)CN[C@H]1CCCc2ccccc21.O=C(O)C(=O)O [SR59230A, 3-(2-Ethylphenoxy)-1-[(1,S)-1,2,3,4-tetrahydronapth-1-ylamino]-2S-2-propanol oxalate]
Log KD (Human β3-adrenoceptor; [5]): −7.37 | Log KD [1, 6]: −7.96±0.08 | Log KD [4, 7]: −7.65±0.06 | Log KD (Human β2-adrenoceptor): −8.45

SMILES: CC(C)(C)NCC(O)c1ccc(O)c(CO)c1 (stereo not shown) [Salbutamol]
Kd [1]: 724 nM | Kd [4, 9]: 4370 nM | EC50 ([2]; CRE-SPAP production, CHO tβ4C cells, read-out: Log EC50 (converted)): 42.7 nM | % isop max ([2]; CHO tβ4C cells): 99.9±2.3% | EC50 ([3]; CRE-SPAP production, CHO tβ3C cells, read-out: Log EC50 (converted)): 3.55 nM | Emax [3]: 102 ± 3.1%

SMILES: OCc1cc(C(O)CNCCCCCCOCCCCc2ccccc2)ccc1O (stereo not shown) [Salmeterol]
Log KD (Human β3-adrenoceptor; [5]): −6.33 | Kd [1]: 3.16 nM | Kd [4]: 81.3 nM | EC50 [2]: 3.98 nM | % isop max ([2]; CHO tβ4C cells): 102.5±2.8% | EC50 [3]: 0.0372 nM | Emax [3]: 96 ± 5.7%

Kd [1, 8]: 537 nM | Kd [4, 9]: 692 nM
SMILES: CC(C)NCC(O)c1ccc(NS(C)(=O)=O)cc1 (stereo not shown) [Sotalol]
Log KD (Human β3-adrenoceptor; [5]): −5.05

SMILES: CC(C)(C)NCC(O)c1cc(O)cc(O)c1 (stereo not shown) [Terbutaline]
Kd [1]: 2400 nM | Kd [4, 9]: 33900 nM

Kd [4, 9]: 2 nM
SMILES: CC(C)(C)NC[C@H](O)COc1nsnc1N1CCOCC1 [Timolol]
Log KD (Human β3-adrenoceptor; [5]): −6.80

SMILES: CC(C)(C)NCC(O)c1ccccc1Cl (stereo not shown) [Tulobuterol]
Log KD (Human β3-adrenoceptor; [5]): −4.72 | Kd [1]: 229 nM | Kd [4, 9]: 3470 nM | Log KD (Human β2-adrenoceptor): −6.83

Kd [1]: 2290 nM | Kd [4]: 589 nM
SMILES: O=C(NCCNCC(O)COc1ccc(O)cc1)N1CCOCC1 (stereo not shown) [Xamoterol]

SMILES: COCCNC(=O)COc1ccc(OCCNC[C@H](O)COc2ccccc2)cc1 [ZD7114]
Log KD (Human β3-adrenoceptor; [5]): −6.78 | Log KD [1, 6]: −6.59±0.10 | Log KD [4, 7]: −7.59±0.04 | Log KD (Human β2-adrenoceptor): −7.31
